Each structure is given as a SMILES string.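 How tested: cells in 96-well plates exposed to compound for 48 hours at five concentrations. The concentration for 50% growth inhibition is given as GI50. Definition used: TGI = concentration required for complete inhibition of growth.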

Common to all, as to assay: growth of human tumour cells (NCI), 48 h
Test [1] deals with EKVX NSCLC.
Test [2] relates to MCF7 breast.
Test [3] deals with HS 578T breast.
The subject of test [4] is OVCAR-8 ovarian.
Test [5] deals with A498 renal.
Test [6] concerns SN12C renal.
Test [7] has as its system SF-268 CNS.
Test [8] has as its system HCT-116 colon.
Test [9] has as its system HL-60(TB) leukemia.
Test [10] relates to U251 CNS.

On to `ON(CCc1ccncc1)Cc1ccccc1`, for which the TGI in test [1], in [2], in test [3], in test [4], in test [5] and in test [6] was over 100 µM throughout. The TGI in test [7] and in test [8] was over 100 µM each time.
For the compound `COc1cc(C(=O)/C=C/c2c(-c3ccc(F)cc3)nc3sc(C)cn23)cc(OC)c1OC`, the GI50 was 2290 nM in test [1]; 1.81 µM in test [2]; 2870 nM in test [9]; 8.29 µM in test [3]; 4.94 µM in [4]; 9.01 µM in [6]. Also, the GI50 was 15.2 µM in test [7], 4.07 µM in test [10] and 2920 nM in test [8]. The TGI in [1], in test [2], in test [9], in test [3], in test [4] and in [6] was over 100 µM throughout. Moreover, the TGI in test [7], in test [10] and in test [8] was over 100 µM each time.
On to `COc1ccc(-c2nsc3c2NC(=O)CC3c2ccc3c(c2)OCO3)cc1` (centres undefined), for which the GI50 is 0.367 µM in test [2]; 579 nM in test [9]; 2.06 µM in test [3]; 3.04 µM in [4]; 1.05 µM in test [5]; 2.55 µM in test [6]. Further, the GI50 in test [7] was 6.44 µM; in test [8], 574 nM. For the same compound, the TGI in test [2] was over 100 µM; in test [9], 8.32 µM; in [3], 54.5 µM; in test [4], over 100 µM; in test [5] it was 7.05 µM; in test [6], over 100 µM. Moreover, the TGI in [7] and in test [8] was over 100 µM throughout.
For `COc1ccc(C2=CC(c3cc(OC)c(OC)c(OC)c3)NC(=O)N2)cc1OC` (centres undefined), the GI50 was 2850 nM in test [1]; 4.26 µM in test [2]; 1570 nM in test [9]; 4.25 µM in [4]; 1.83 µM in test [5]; 2.42 µM in [6]. For the same compound, the GI50 in test [7] is 3.46 µM; in test [10], 3.82 µM; in test [8], 3170 nM. Also, the TGI in test [1] is 23.2 µM; in test [2], 14.8 µM; in [9], 6.52 µM; in test [4], over 100 µM; in test [5], 8.32 µM; in [6] it was 8.33 µM. Moreover, the TGI in test [7] came to 14.5 µM; in [10], 14.1 µM; in test [8], 11.1 µM.
In the case of `CC1=C(SCc2ccccc2)C(=O)c2ccccc2C1=O`, the TGI is 44 µM in [1]; 40.6 µM in test [2]; over 100 µM in [9]; 38.8 µM in test [4]; 62.1 µM in test [5]; 40.3 µM in [6]. For the same compound, the TGI in test [7] is 31.3 µM; in test [10], 33.5 µM; in test [8], 18.2 µM.
For `Cn1c(=O)c(Oc2cccc(F)c2)cc2cnc(NC3CCOCC3)nc21`, the GI50 in test [2] is over 25 µM; in [9], over 25000 nM; in [3], over 25 µM; in [4], over 25 µM; in test [5] it was 8.11 µM; in [6], over 25 µM. Also, the values for the GI50 in test [7], in test [10] and in test [8] were over 25 µM, over 25 µM and over 25000 nM, respectively. Also, the TGI in test [2], in test [9], in test [3], in test [4], in test [5] and in [6] was over 25 µM throughout. Further, the TGI in test [7], in [10] and in test [8] was over 25 µM throughout.
With `N#Cc1c2ccccc2c2n1-c1ccccc1OC(c1ccccc1)C2=O` (centres undefined), the GI50 in test [2] was 3.8 µM; in test [9] it was 2830 nM; in [3], 3.53 µM; in test [4], 3.26 µM; in [5], 1.84 µM; in test [6], 3.48 µM. For the same compound, the results for the GI50 in [7], in test [10] and in test [8] were 3.73 µM, 3.17 µM and 2840 nM, respectively. Moreover, the TGI in test [2] was 14.6 µM; in test [9], 6.03 µM; in [3], 37 µM; in test [4], 15.7 µM; in test [5] it was 6.89 µM; in test [6], 14.9 µM. Also, the figures for the TGI in test [7], in test [10] and in test [8] were 19.7 µM, 15.7 µM and 12.4 µM, respectively.
Regarding `O=Nc1c(-c2cccc([N+](=O)[O-])c2)nc2cnccn12`, the TGI was over 100 µM in test [1]; over 100 µM in [2]; over 100 µM in [9]; over 100 µM in test [3]; 53.8 µM in test [4]; 59.7 µM in test [6]. Also, the TGI in test [7] was determined as 79.4 µM; in [10] it was 42.4 µM; in test [8], 18.8 µM.
Turning to `Cc1ccccc1S(=O)(=O)N1[C@H](c2ccc(Cl)cc2)C(C(=O)N[C@@H](Cc2ccccc2)C(N)=O)=C[C@@H]1C(C)(C)C`, the GI50 in [2] is 2.17 µM; in test [9] it was 9600 nM; in test [3], 8.64 µM; in test [4], 5.95 µM; in test [5], 7.3 µM; in test [6] it was 6.08 µM. In addition, the GI50 in test [7] was 6.56 µM; in test [10], 5.28 µM; in [8] it was 2900 nM. The TGI was found to be 9.67 µM in [2]; 31.2 µM in test [9]; 26.4 µM in test [3]; 25.4 µM in test [4]; 14.4 µM in test [5]; 13.3 µM in [6]. The TGI amounted to 16.4 µM in [7], 12.1 µM in test [10] and 15.1 µM in test [8].
Consider `C=C1C(=O)O[C@H]2[C@H]1CC/C(CNC(=O)/C=C/c1cccc(OC)c1)=C\CC[C@@]1(C)O[C@@H]21`, for which the GI50 in test [1] was 1850 nM; in [3], 2.2 µM; in [4], 2.19 µM; in test [5] it was 1.82 µM; in test [6], 1.53 µM; in test [7], 2.29 µM. For the same compound, the results for the GI50 in test [10] and in [8] were 1.58 µM and 545 nM, respectively. Moreover, the TGI turned out to be 5.62 µM in [1]; 11.2 µM in test [3]; 8.07 µM in [4]; 5.85 µM in test [5]; 4.34 µM in test [6]; 6.69 µM in test [7]. Also, the TGI was found to be 3.11 µM in [10] and 1.94 µM in test [8].
Regarding `O=[N+]([O-])c1cc(O)c(O)cc1-c1cn2ccsc2n1`, the GI50 was over 100000 nM in test [1]; 52.7 µM in [2]; 52.5 µM in test [4]; 25.3 µM in test [5]; 85.6 µM in test [6]; 66.1 µM in test [7]. Moreover, the GI50 is 77.1 µM in [10] and 31100 nM in [8]. Moreover, the TGI in [1] is over 100 µM; in [2] it was over 100 µM; in [3], 36 µM; in [4], over 100 µM; in [5] it was 62.3 µM; in [6], over 100 µM. Moreover, the TGI in test [7], in test [10] and in test [8] was over 100 µM in each case.
Consider `N#Cc1cccc(C(=O)c2cnn(-c3ccc(F)cc3)c2N)c1`, for which the GI50 in test [2] was over 25 µM; in test [9] it was over 25000 nM; in test [3] it was over 25 µM; in test [4], over 25 µM; in test [5] it was over 25 µM; in test [6], over 25 µM. The GI50 in test [7] was over 25 µM; in test [10] it was 18.1 µM; in test [8] it was over 25000 nM. The TGI in [2], in [9], in [3], in test [4], in [5] and in [6] was over 25 µM each time. Further, the TGI in test [7], in test [10] and in [8] was over 25 µM in each case.
`CCOCC(=O)N[C@H]1CCc2cc(OC)c(OC)c(OC)c2-c2ccc(SC)c(=O)cc21`: the TGI in test [1] was over 100 µM; in test [2], over 51.4 µM; in test [9], under 0.0347 µM; in test [4] it was 4.64 µM; in [5] it was 1.49 µM; in test [6], over 100 µM. Besides, the TGI was over 90.9 µM in [7], over 76.8 µM in test [10] and 2.39 µM in test [8].
As for `CSc1ccc(-c2cc(-c3ccc(NC(=O)CCCN4CCCC4)cc3)nc(-c3ccc(NC(=O)CCCN4CCCC4)cc3)c2)cc1`, the GI50 in test [9] was 6540 nM; in [3] it was 2.28 µM; in test [4] it was 3.3 µM; in test [6] it was 3.46 µM; in test [7], 2.15 µM; in test [10], 1.64 µM. Moreover, the TGI in [9] was found to be 23.5 µM; in [3], 6.38 µM; in [4], 13.6 µM; in test [6], 17.1 µM; in [7], 5.01 µM; in test [10], 3.12 µM.
In the case of `COc1ccc(Nc2ccnc(NCCNc3ccnc4cc(Cl)ccc34)n2)cc1`, the GI50 was 1.53 µM in [2]; 2480 nM in test [9]; 2 µM in test [3]; 3.54 µM in [4]; 0.874 µM in [5]; 3.73 µM in test [6]. Also, the GI50 was 3.65 µM in test [7], 1.69 µM in test [10] and 533 nM in [8]. Moreover, the TGI in test [2] is 5.2 µM; in test [9], 7.06 µM; in test [3], 5.91 µM; in [4], 17.3 µM; in test [5], 4.92 µM; in test [6], 18.4 µM. Moreover, the TGI in test [7] amounted to 15.6 µM; in [10] it was 5.22 µM; in test [8], 3.78 µM.
For `O=C(Cn1c(=O)c(-c2ccccc2)nc2ccccc21)c1cccnc1`, the GI50 in test [1] was over 100000 nM; in test [2], over 100 µM; in [3] it was over 100 µM; in test [4], over 100 µM; in test [6], over 100 µM; in test [7], over 100 µM. Further, the GI50 in test [10] is over 100 µM; in test [8], over 100000 nM. In addition, the TGI in test [1], in [2], in test [3], in test [4], in test [6] and in test [7] was over 100 µM throughout. The TGI in [10] and in [8] was over 100 µM in each case.
For the compound `CN(C)/C=C/c1nnnn1-c1ccc(Cl)cc1`, the GI50 in test [1] is 30900 nM; in test [2] it was 6.03 µM; in [3], 17.5 µM; in [4], 11.2 µM; in test [5], 30.5 µM; in test [6], 4.69 µM. The results for the GI50 in [7], in [10] and in test [8] were 3.01 µM, 6.5 µM and 4400 nM, respectively. Moreover, the TGI in test [1] amounted to 82.8 µM; in test [2], 24.8 µM; in [3], 79.7 µM; in test [4] it was 64.4 µM; in test [5] it was 87.1 µM; in test [6], 28.8 µM. Further, the figures for the TGI in [7], in test [10] and in test [8] were 19.8 µM, over 100 µM and 37.3 µM, respectively.
As to `COc1ccc(Nc2ncccc2/C=C/C(=O)c2cc(OC)c(OC)c(OC)c2)cc1`, the GI50 in test [1] was 1800 nM; in test [2], 0.695 µM; in test [3] it was 2.68 µM; in [4] it was 1.56 µM; in [5] it was 3.19 µM; in [6], 1.56 µM. The GI50 in test [7] is 1.77 µM; in [10], 1.27 µM; in [8], 1020 nM. The TGI stood at 4.01 µM in [1]; 2.09 µM in test [2]; 9.6 µM in test [3]; 4.22 µM in [4]; 11.7 µM in test [5]; 3.44 µM in test [6]. Besides, the TGI in test [7] amounted to 4.08 µM; in test [10] it was 2.52 µM; in test [8] it was 2.28 µM.

For the origin of these results see PubChem BioAssay (NCI).
